{
  "source": "patent US20230035763A1",
  "about": "“METHODS OF TREATING CANCER USING TUBULIN BINDING AGENTS” (BeyondSpring Pharnaceuticals, Inc., priority 2018, published 2023)",
  "key": {"[1]": {"system": "OVXF899, OVXF1023", "assay": "CellTiter-Blue cell viability assay, ovarian cell lines (Inactive group)", "format": "cell-based, human", "set-up": "key: Active: active (IC70<1 µM); Inactive: inactive (IC70>1 µM, and usually >10 µM)", "details": "IC70 class, 24 h treatment + 48 h compound-free", "description": "(§1) Working stock solution of the test compounds (Plinabulin, Docetaxel and Paclitaxel) were prepared in DMSO at a concentration of 3.14 (Plinabulin) or 3.3 mM (Docetaxel and Paclitaxel), and small aliquots were stored at −20° C. On each day of an experiment, a frozen aliquot of the working stock solutions was thawed and stored at room temperature prior to and during treatment. All liquid handling steps were done by the Tecan Freedom EVO 200 platform. First, serial half-log dilutions of the DMSO working stock solution were made in DMSO. The DMSO dilutions were then diluted 1:22 into cell culture medium in an intermediate dilution plate. Finally, 10 μl taken from the intermediate dilution plate was transferred to 140 μl/well of the final assay plate. […] Briefly, cells were harvested from exponential phase cultures, counted and plated in 96-well flat-bottom microtiter plates at a cell density of 4,000 to 60,000 cells/well dependent on the cell line's growth rate. […] After the initial application of the compounds for 24 hours, the compound-containing media was exchanged to media without compounds and incubation was continued for a further 48 hours until read-out. […] Following incubation with CellTiter-Blue® reagent for up to four hours, fluorescence (FU) was measured by using the Enspire Multimode Plate Reader (excitation λ=570 nm, emission λ=600 nm). […]"}, "[2]": {"system": "PC-3", "assay": "CellTiter-Blue cell viability assay, prostate cell line (Inactive group)", "format": "cell-based, human", "set-up": "key: Active: active (IC70<1 µM); Inactive: inactive (IC70>1 µM, and usually >10 µM)", "details": "Prostate: PC-3; IC70 class, 24 h treatment + 48 h compound-free", "description": "as §1"}, "[3]": {"system": "Calu-, LXFL1121, NCI-H460", "assay": "CellTiter-Blue cell viability assay, lung cell lines (Active group)", "format": "cell-based, human", "set-up": "key: Active: active (IC70<1 µM); Inactive: inactive (IC70>1 µM, and usually >10 µM)", "details": "IC70 class, 24 h treatment + 48 h compound-free", "description": "as §1"}, "[4]": {"system": "MAXFTN401, BT-474, HCC-1937, MCF7, MDA-MB-231", "assay": "CellTiter-Blue cell viability assay, breast cell lines (Inactive group)", "format": "cell-based, human", "set-up": "key: Active: active (IC70<1 µM); Inactive: inactive (IC70>1 µM, and usually >10 µM)", "details": "Breast: MAXFTN401, BT-474, HCC-1937, MCF7, MDA-MB-231; IC70 class, 24 h treatment + 48 h compound-free", "description": "as §1"}, "[5]": {"system": "A2780, EFO-21, EFO-27, OVCAR3", "assay": "CellTiter-Blue cell viability assay, ovarian cell lines (Active group)", "format": "cell-based, human", "set-up": "key: Active: active (IC70<1 µM); Inactive: inactive (IC70>1 µM, and usually >10 µM)", "details": "Ovarian: A2780, EFO-21, EFO-27, OVCAR3; IC70 class, 24 h treatment + 48 h compound-free", "description": "as §1"}, "[6]": {"system": "LXFA289, LXFA526, LXFA629, LXFA983, A549, HOP-62, NCI-H322M, NCI-H226, SK-MES-1, A427, NCI-H1299, H2171, SCLC-21H", "assay": "CellTiter-Blue cell viability assay, lung cell lines (Inactive group)", "format": "cell-based, human", "set-up": "key: Active: active (IC70<1 µM); Inactive: inactive (IC70>1 µM, and usually >10 µM)", "details": "Lung: LXFA289, LXFA526, LXFA629, LXFA983, A549, HOP-62, NCI-H322M, IC70 class, 24 h treatment + 48 h compound-free", "description": "as §1"}, "[7]": {"system": "22Rv1, DU-145, LNCaP, PC-3M", "assay": "CellTiter-Blue cell viability assay, prostate cell lines (Active group)", "format": "cell-based, human", "set-up": "key: Active: active (IC70<1 µM); Inactive: inactive (IC70>1 µM, and usually >10 µM)", "details": "Prostate: 22Rv1, DU-145, LNCaP, IC70 class, 24 h treatment + 48 h compound-free", "description": "as §1"}, "[8]": {"system": "CAL-51, HS578T, JIMT-1, MCF10A, MX1", "assay": "CellTiter-Blue cell viability assay, breast cell lines (Active group)", "format": "cell-based, human", "set-up": "key: Active: active (IC70<1 µM); Inactive: inactive (IC70>1 µM, and usually >10 µM)", "details": "Breast: CAL-51, HS578T, IC70 class, 24 h treatment + 48 h compound-free", "description": "as §1"}, "[9]": {"system": "A-172, SF-539, SNB-78, U-251, U-87MG", "assay": "CellTiter-Blue cell viability assay, CNS cell lines (Active group)", "format": "cell-based, human", "set-up": "key: Active: active (IC70<1 µM); Inactive: inactive (IC70>1 µM, and usually >10 µM)", "details": "CNS: A-172, SF-539, SNB-78, U-251, U-87MG; IC70 class, 24 h treatment + 48 h compound-free", "description": "as §1"}, "[10]": {"system": "43 human cancer cell lines (breast, lung, prostate, ovarian or CNS)", "assay": "CellTiter-Blue cell viability assay, IC70, panel of human cancer cell lines", "format": "cell-based", "details": "24 h treatment, then 48 h without plinabulin", "source_text": "Plinabulin is a tubulin targeted agent that binds near the colchicine site in β-tubulin and is being tested in a Phase 3 clinical study for the treatment of non-small cell lung cancer. The colchicine site is distinct from the binding site of taxanes (e.g. Paclitaxel and docetaxel), and binding site and other differences between tubulin targeted agents are often associated with differing effects on biological functions, disease outcomes and safety profiles. Additional indications are being considered for plinabulin so a model for selecting especially responsive patients would be of significant value. As a first step towards building this model, the in vitro activity of Plinabulin against 43 human cancer cell lines (breast, lung, prostate, ovarian or CNS), previously characterized for mRNA expression with the Affymetrix HGU133 Plus 2.0 array, was evaluated. Although screening for in vitro anticancer activity is typically performed with constant treatment of the agent for 48-72 hours, cells were treated for only 24 hours with plinabulin and then cultured for another 48 hours without plinabulin.\nTypically anticancer activity is judged at the 50% effect level (50% reduction in viable tumor cells), but viable cell concentration are quantified here with a Cell Titer-Blue Assay to find the concentration causing a 70% reduction in the quantity of viable tumor cells (IC70). […]"}},
  "data": [
    {"smiles": "CC(C)(C)c1[nH]cnc1/C=c1\\[nH]c(=O)/c(=C/c2ccccc2)[nH]c1=O", "note": "[Plinabulin]", "values": [
      {"measurement": "Plinabulin Activity", "setting": "[1]", "result": "Inactive"},
      {"measurement": "Plinabulin Activity", "setting": "[2]", "result": "Inactive"},
      {"measurement": "Plinabulin Activity", "setting": "[3]", "result": "Active"},
      {"measurement": "Plinabulin Activity", "setting": "[4]", "result": "Inactive"},
      {"measurement": "Plinabulin Activity", "setting": "[5]", "result": "Active"},
      {"measurement": "Plinabulin Activity", "setting": "[6]", "result": "Inactive"},
      {"measurement": "Plinabulin Activity", "setting": "[7]", "result": "Active"},
      {"measurement": "Plinabulin Activity", "setting": "[8]", "result": "Active"},
      {"measurement": "Plinabulin Activity", "setting": "[9]", "result": "Active"},
      {"measurement": "IC70 (concentration causing a 70% reduction in the quantity of viable tumor cells)", "setting": "[10]; 21 cell lines of the Active category", "result": "< 1.0", "unit": "µM"},
      {"measurement": "IC70 (concentration causing a 70% reduction in the quantity of viable tumor cells)", "setting": "[10]; 91% of the cell lines of the Inactive category", "result": "> 9.5", "unit": "µM"}
    ]}
  ]
}
